Data: patent US6518012B1, “Method for regulating the expression of MHC antigens and CD40 by inhibitors of histone deacetylation” (Health Research, Inc., priority 1999, dated 2003)

What was measured:
cell lines employed = assay: Toxicity of deacetylase inhibitors (lift-off, trypan-blue dye exclusion, laddering, PI/annexin-V flow cytometry); format: cell-based; details: TSA from 5 nM to 250 nM for 6 to 72 hr
Description: Two representative DAIs, TSA and NaBu were used for this illustration. […] In some experiments, 100 U/ml γ-IFN was added with and without the deacetylase inhibitor.

CIITA mRNA = CIITA mRNA by RT-PCR and real-time PCR in mouse tumor cells Colon 26 and J558; format: cell-based; details: for CIITA fold increase / expression of CIITA: Colon 26; for CIITA fold increase: real-time PCR; for expression of CIITA: standard RT-PCR at 35 cycles; for CIITA mRNA activation: titration with different concentrations of TSA for 12 hours, RT-PCR and real-time PCR
Description: To determine the effect of DAIs on HLA-DRα mRNA, cytoplasmic RNA was isolated from untreated and treated human trophoblast cell line JAR using standard techniques (RNeasy System from Qiagen). Standard PCR was performed using primers for DR and CIITA (Murphy et al., 1998, Reprod Dev., Chin et al., 1994, Immunity 1:687-697). Other primers used included human and mouse GAPDH (Clontech) and forward primer 5′-[…]-3′ (SEQ ID NO:25) and reverse primer 5′-[…]-3′ (SEQ ID NO:26) for mouse CIITA. PCR products were amplified with GOLD Taq for 10 min at 95° C., then 95° C. for 30 sec, 60° C. for 60 sec (25-45 cycles), then an extension at 60° C. for 10 min.
In order to obtain more quantitative information on fold changes in DR and CIITA after treatment with the deacetylase inhibitors, a real time fluorescence technique capable of quantitating low copy numbers of transcripts was carried out as follows. Oligonucleotide primers and TaqMan 5′-6-FAM and 3′-TAMRA-labeled probes were synthesized in the RPCI Biopolymer Facility. Primer and probe sequences are listed under Sequence Listing and also in FIG. 9. Sequences were designed using standard software (PrimerExpress software, PE Biosystems) except for human GAPDH.
Realtime PCR reactions contained TaqMan Universal PCR Master Mix (PE Biosystems), primers at 300 nM, and probes at optimal concentrations (150-225 nM depending on gene). Reactions were carried out on an ABI PRISM 7700 Sequence Detection System (PE Biosystems). Cycling conditions were 50° C. for 2 min, 95° C. for 10 min, then 60 cycles of 95° C. for 15 sec, 60° C. for 1 min. PCR samples were run in triplicate. The detection system and quantitative PCR was carried out as described by Williamson et al. (1995, Genet Res. 65:83-93). The threshold cycle number CT corresponded to the cycle number, at which the fluorescent emission reaches 10 standard deviations above the mean fluorescent emission, measured during the early ‘baseline’ cycles of the PCR. The CT values for triplicates were averaged and normalized to GAPDH levels. […] In such cases, in order to calculate a minimum fold change for other samples in the same group, the CT value was arbitrarily set at 40. […] Assuming reverse transcription efficiencies were approximately the same for each sample, relative amounts of mRNA using the comparative CT method. Fold changes in mRNA levels were calculated as 2^x where x=the difference between normalized CT values of the control and experimental samples.
(§1) To determine if the effect of DAIs on MHC class II was manifested in other tumors and in different species, the effect of TSA was tested on four commonly used mouse tumor models: the SaI fibrosarcoma, the Colon 26 adenocarcinoma, the J558 plasmacytoma and the P815 mastocytoma. TSA induced class II in all four mouse tumors examined, while the effects of IFNγ were variable (FIG. 4). Data presented for each cell line represents optimal incubation time and concentration of TSA and is compared with 100 U/ml of IFNγ at the same time point. Numbers over bars represents fold changes. […] Colon 26 and J558 that differed strikingly in their reactivity to IFNγ were selected for further evaluation. RT-PCR and real time PCR was used to examine induction of CIITA and IAα by TSA and IFNγ. A20, a constitutively positive B cell line was used as a positive control. The results are shown in FIGS. 5A-D. The numbers over bars represent fold changes. […] Since the classical IFNγ inducible genes IRF-1 and GBP as well as MHC class I mRNA were not induced by IFNγ in J558 (data not shown), this cell line may have a signaling defect in the IFNγ pathway. Unexpectedly however, and unlike either the MC or Colon 26 cells, TSA induced both CIITA (102-fold) and Iα (537-fold) in J558 as shown in FIGS. 5B and 5D.

MHC class I = assay: Cell surface MHC class I by flow cytometry on SK-N-MC; format: cell-based, human; details: 50 nM TSA 48 hours
J558 cells = assay: Other cell surface markers by flow cytometry on J558 cells; format: cell-based, mouse; details: TSA treatment
Description: To determine the effect of TSA on cell surface protein expression, the J558 cell line was subjected to flow cytometric analyses as follows. Flow cytometric analyses were conducted by standard methods using cells fixed with 1.0% paraformaldehyde and analyzed on the FACScan (Becton Dickinson). Cell cycle analyses were carried out by flow cytometry with PI staining of genomic DNA. Cells were fixed and permeablized in methanol, treated with RNaseA and analyzed for DNA content by determination of FL3-area on the FACScan. The FL3-area data were analyzed with the ModFit software for determination of the percent cells in each phase of the cell cycle. In some cases, fluorescein isothiocyanate (FITC)-conjugated antibody staining was conducted prior to PI treatment and surface staining was analyzed as a function of cell cycle phase. Apoptosis was analyzed by staining with annexin-V directly conjugated with either FITC or RPE and by sub-G0 analysis of DNA staining. […] Isotype controls were analyzed and, in each case, fell on or below the levels shown for control cells. […] Since all cells were positive for MHC class I expression, the number under the histogram represents -fold change of expression calculated from the mean channel-shift after treatment relative to untreated cells. […]

[1] = system: interferon regulatory factor (IRF-1) and guanylate binding protein (GBP) mRNA; assay: mRNA of IFNγ inducible genes IRF-1 and GBP in SK-N-MC; format: cell-based, human; details: IFNγ treatment, data not shown
[2] = system: IRF-1, GBP and MHC class I mRNA; assay: mRNA of IRF-1, GBP and MHC class I in J558; format: cell-based, mouse; details: IFNγ, data not shown
Description: as §1

Compound: CC(/C=C/C(=O)NO)=C\[C@@H](C)C(=O)c1ccc(N(C)C)cc1 [TSA, Trichostatin A]
- toxicity (cell lines employed): non toxic
- CIITA fold increase (CIITA mRNA): absence
- expression of CIITA (CIITA mRNA): not detected
- CIITA fold induction (CIITA mRNA; J558, RT-PCR and real-time PCR (FIGS. 5B and 5D)): 102 fold
- CIITA mRNA activation (CIITA mRNA; J558): induced
- MHC class I expression on cell surface (MHC class I): enhanced
- expressed markers (CD44, CD54, CD80, CD86, CD119) (J558 cells): not altered
- levels of non-expressed antigens (CD25, B7 integrin, CD40L, H2K^k, IA^k) (J558 cells): not elicited

Compound: IFNγ: gamma-interferon, cytokine used as comparator at 100 U/ml
- mRNA for IRF-1 and GBP [1]: enhanced
- CIITA fold increase (CIITA mRNA): 20 fold
- expression of CIITA (CIITA mRNA): induced
- CIITA mRNA activation (CIITA mRNA; J558): failed to activate
- IRF-1, GBP and MHC class I mRNA induction [2]: not induced
